# Counter-ions that a name gives are not always drawn.
# Tests used:
# [1] = tested on: P388/0 tumor cells (lymphocytic leukemia); assay: Lymphocytic Leukemia P388/0 Test (survival of tumor-bearing mice); format: in vivo, mouse (CD2-F1); settings: ip, days 1, 5, 9; at optimal dose (mg/kg): 1B 121; 1C 115; 2 100; 3 100; 6G 65; 18B 88; 19H 110; 6H 60; 7 110; 9 300; 10B 1013; 11C 150; 12G 90; 5F 225; 13D 303; 14 196; 15B 250; 16 1012; 4B 180; active if ≥120%
# Source text: (§1) Methods for evaluating the antitumor activity of these compounds are essentially those used in the Tumor Panel by the Developmental Therapeutics Program, Division of Cancer Treatment, National Cancer Institute, A. Goldin, et al., Methods in Cancer Research, Vol. XVI, p. 165, Academic Press (1979). Some modifications, in dose level and schedule have been made to increase the testing efficiency.
# (§2) CD2-F1 mice, of the same sex, weighing 20±3 g, are used for this test. Control and test animals are injected intraperitoneally with a suspension of ~10^6 viable P388/0 tumor cells on day 0. In each test, several dose levels which bracket the LD20 of the compound are evaluated; each dose level group contains six animals. The test compounds are prepared either in physiologic saline containing 0.05% Tween 80 or distilled water containing 5% dextrose and are administered intraperitoneally on days 1, 5, and 9 relative to tumor implant. Doses are on a mg/kg basis according to individual animals' body weights. The day of death for each animal is recorded, the median identified for each group and the ratios of median survival time for treated (T)/control (C) groups are calculated. The criterion for activity is T/C×100≥120%.
# LD20 in the P388/0 test = format: in vivo, mouse (CD2-F1); settings: ip, days 1, 5 and 9
# Method: as §2
# ^A Values in parentheses are the highest nontoxic dose where the
# LD20 was not determined.
# B16 melanoma cells = assay: Melanotic Melanoma B16 test (survival); format: in vivo, mouse (B6C3-F1); settings: B16 ip; drug ip days 1, 5, 9; dose (mg/kg): 1C 100; 6G 50; 3 70; 2 75; 18B 70; active if >125%
# Source text: as §1
# B6C3-F1 mice of the same sex, weighing 20±3 g, are used for this test. A suspension of B16 cells is prepared from a non-necrotic portion of solid tumor tissue obtained from a passage mouse. One gram of tumor is homogenized in 9 mL ice-cold Earle's salts solution and filtered through 1000 mesh screen to remove debris. 0.5 mL of the resulting brei is injected intraperitoneally into each animal. Dosing is carried out as in the P388/0 and L1210 tests. Days of death are recorded for a 60 day period and T/C ratio calculated as in the P388/0 and L1210 tests. The criterion for activity is T/C×100>125%.
# Colon 38 carcinoma = assay: Colon 38 Carcinoma Test (tumor weight); format: in vivo, mouse (tumor from C57B1/6); settings: ip, days 1, 5, 9; dose 120 mg/kg; day 20; active if ≤42%
# Source text: as §1
# This chemically-induced tumor arose in a C57B1/6 mouse and is maintained as a solid tumor in that mouse strain. The subcutaneously growing solid tumor is aseptically excised from passage mice and placed in sterile saline. The tumor is trimmed free of visible necrotic and connective tissue, then divided into 2-3 mm cubes. A cube is implanted subcutaneously in the ventral thoracic region with a sterile trochar on day 0. In each test several dose levels which bracket the LD20 for the compound are evaluated. Ten animals are included in each dose level group and thirty animals in the untreated control group. The test compounds are prepared either in physiologic saline containing 0.05% Tween 80 or distilled water containing 5% dextrose and are administered intraperitoneally on days 1, 5 and 9 after tumor implant. […] At day 20, the animals are sacrificed and the longest (L) and shortest (W) dimensions of each tumor measured with vernier calipers. Tumor weight is calculated from the formula [formula] […]
Structure (SMILES),"T/C × 100% (Excluding 30 Day Survivors), median survival time treated/control [1]",LD20 (LD20 in the P388/0 test) [mg/kg],also measured
"COCC(C)(CO)NCc1cc2c3ccccc3ccc2c2ccccc12.Cl (stereo not drawn) [Example 9D, 3-methoxy-2-((6-chrysenylmethyl)amino)-2-methyl-1-propanol hydrochloride]",+181%,–,–
"Cl.OCC(CO)(CO)NCc1cc2c3ccccc3ccc2c2ccccc12 [Example 2, 2-((6-chrysenylmethyl)amino)-2-hydroxymethyl-1,3-propanediol hydrochloride]",–,100,–
"CC(CO)(CO)NCc1cc2c3ccccc3c(Cl)cc2c2ccccc12 [Example 4B, 2-(((12-chloro-6-chrysenyl)methyl)amino)-2-methyl-1,3-propanediol methanesulfonate.1/3H2 O]",+155%,180,–
"O[C@@H]1CCC[C@H](O)[C@H]1NCc1cc2c3ccccc3ccc2c2ccccc12 [Example 10B, (1α,2β,3α)-2-((6-chrysenylmethyl)amino)-1,3-cyclohexanediol hydrochloride]",+205%,–,–
"C[C@H](O)[C@@](C)(CO)NCc1cc2c3ccccc3ccc2c2ccccc12 (relative stereo) [Example 6G, (+-)(2R*,3S*)-2-((6-chrysenylmethyl)amino)-2-methyl-1,3-butanediol hydrochloride.1/3H2 O]",+245%,53,T/C × 100% Excluding 60 day Survivors (B16 melanoma cells): +160%
"CC(C)(CO)NCc1cc2c3ccccc3ccc2c2ccccc12.Cl [Example 18B, 2-((6-chrysenylmethyl)amino)-2-methyl-1-propanol hydrochloride]",–,80,–
"CS(=O)(=O)O.C[C@H](O)[C@@](C)(CO)NCc1cc2c3ccccc3ccc2c2ccccc12 (relative stereo) [Example 6H, (+-)(2R*,3S*)-2-((6-chrysenylmethyl)amino)-2-methyl-1,3-butanediol methanesulfonate]",+235%,60,–
"CC(CO)(CO)NCc1cc2c3ccccc3ccc2c2ccccc12 [Example 1C, 2-((6-chrysenylmethyl)amino)-2-methyl-1,3-propanediol methanesulfonate]",–,–,T/C × 100% (tumor weight) (Colon 38 carcinoma): 36%
"CCC(CO)(CO)NCc1cc2c3ccccc3ccc2c2ccccc12.Cl [Example 3, 2-((6-chrysenylmethyl)amino)-2-ethyl-1,3-propanediol hydrochloride]",–,100,–
"CCc1cc2c3ccccc3c(CNC(C)(CO)CO)cc2c2ccccc12 [Example 15B, 2-(((12-ethyl-6-chrysenyl)methyl)amino)-2-methyl-1,3-propanediol methanesulfonate]",–,150,–
"CC(CO)(CCO)NCc1cc2c3ccccc3ccc2c2ccccc12 (stereo not drawn) [Example 12G, 2-((6-chrysenylmethyl)amino)-2-methyl-1,4-butanediol hydrochloride.1/3EtOH]",–,90,–
"CS(=O)(=O)O.C[C@H](O)C(NCc1cc2c3ccccc3ccc2c2ccccc12)[C@@H](C)O (stereo partly drawn) [Example 13D, meso-3-((6-chrysenylmethyl)amino)-2,4-pentanediol methanesulfonate]",+200%,–,–
"OCC(CO)NCc1cc2c3ccccc3ccc2c2ccccc12 [Example 14, 2-((6-chrysenylmethyl)amino)-1,3-propanediol methanesulfonate]",–,160,–
C[C@@H](O)C(C)(NCc1cc2c3ccccc3ccc2c2ccccc12)[C@@H](C)O (relative stereo) [Example 5F],+255%,–,–
"C[C@@H](O)[C@@](C)(CO)NCc1cc2c3ccccc3ccc2c2ccccc12.Cl (relative stereo) [Example 7, (+-)-(2R*,3R*)-2-((6-chrysenylmethyl)amino)-2-methyl-1,3-butanediol hydrochloride]",+285%,100,–
"CC(CO)(CO)NCc1cc2c3ccccc3ccc2c2ccccc12.Cl [Example 1B, 2-((6-chrysenylmethyl)amino)-2-methyl-1,3-propanediol hydrochloride]",–,140,–
"CC(CO)(CO)NCc1ccc2ccc3c4ccccc4ccc3c2c1 [Example 19H, 2-((3-chrysenylmethyl)amino)-2-methyl-1,3-propanediol methanesulfonate]",–,150,–
"CC(C)C(CO)(CO)NCc1cc2c3ccccc3ccc2c2ccccc12 [Example 11C, 2-((6-chrysenylmethyl)amino)-2-isopropyl-1,3-propanediol hydrochloride.H2 O]",–,150,–
"CC(=O)OCC(C)(COC(C)=O)NCc1cc2c3ccccc3ccc2c2ccccc12 [Example 16, 2-((6-chrysenylmethyl)amino)-2-methyl-1,3-propanediol diacetate]",+145%,–,–

# Reference: patent US4719048A, “Crysene compound” (Burroughs Wellcome Co., priority 1984, dated 1988)
